Laboratory results published in patent US20230413879A1, “FOOD COMPRISING ISOSTEVIOL AND USES THEREOF” (ISOFIRMS APS, priority 2020, published 2023).
“Also recorded” adds a separate entry of the source.

Experiments:
pigs [1] = test: Stool firmness / diarrhea in pigs (Example 4); type: in vivo, pig (Danish Landrace); details: groups receiving isosteviol (IPG and IG) compared to control groups (CG and CPG)
pigs [2] = test: Pig feeding trial: growth rate / weight gain (Example 2); type: in vivo, pig (Danish Landrace); details: for Average weight (kg) start: baseline; for Net growth vs. CG group / Net growth vs. CPG group: index; for Net growth vs. CG group: CG = 100; for Net growth vs. CPG group: CPG = 100; for Average weight (kg) Increase: start to week 8
Source text: Isosteviol in 97% purity was produced in-house. Isosteviol may be produced by acid-catalysed extraction of Stevia rebaudiana L. Preferably at a pH below 5.5.
The pigs were of the type Danish Landrace Age approx. 90 days, gender equally distributed. They weighted approximately 30 kg when delivered and had been fed with a normal conventional diet for piglets until delivery.
• Standard feed is home-blended by the farmer with the ratio: Wheat 55 w %, Barley 35 w %, Rye 10 w %. • Nutritional profile/100 g: • Nutritional content: 1313 KJ • Fat: 1.8 g • Carbohydrate: 68.9 g • Of which sugar: 1.4 g • Fibres: 15.8 g • Protein: 12.8 g • Supplementary feed: The Supplementary feed was distributed as a “Semi Soja 1920” composition (from DLG), which is a supplementary feed high in protein, carbohydrate, and free amino acids.
(§1) The pigs were randomly distributed in the five pigsties when trial started. Food and water were provided ad libitum (see Table 2). The farmer was not aware of which groups received which additional feed, since all feeds were masked to look the same and the CG group received a bag similar to the other groups.
Every other week the pigs were weighed, and their growth were noted. The pigs were attended too equally.
Timeframe: Trial started after delivery of the 30 kg pigs and was planned to end when the pigs weighed around 115-118 kg, the weight at trial-end was however around 120 kg (11 weeks). Total time for production is 72 days.
The food intake by each pig during the trial is described in Table 3.

pigs [3] = test: Meat (muscle) percentage at slaughter, ultrasound Autoform (Example 5); type: in vivo, pig (Danish Landrace); details: FIG. 5-6
Procedure: See also previous examples.
Meat percentage is measured when the pig is dead. The body is prepared and send to an automatic equipment that measures fat/meat thicknesses based on ultrasound measurements called an Autoform. The equipment is certified by third party and the meat percentages in this study was performed by Tican A/S at the slaughterhouse in Brdrup.
Increased meat (muscle) percentage can also be considered to correspond to an increased muscle/fat ratio.

piglets [4] = test: Larger pig trial: body weight / weight gain (Example 8); type: in vivo, pig (DanBred x Duroc); details: for weight gain versus negative control: week 3-6 and week 1-6 / 42 days trial; for Body weight [kg] Mean SD 0 / Body weight [kg] Median SD 0: baseline
Source text: (§2) Trial with 360 barrows and female piglets (DanBred×Duroc; initial BW of about 6.8 kg).
(§3) Age when trial started approx. 7 days and trial ended after 42 days. They weighed approx. 7 kg initially and have been feed as per normal conventional diet for piglets until delivery.
(§4) Basal diets as per standard industry feed: • Prestarter diet for post-weaning piglets: 7.0 to 9.0 kg BW • Starter diet for piglets: 9.0 to 15.0 kg BW • Grower diet for piglets: 15.0 to 30.0-35.0 kg BW.
(§5) Isosteviol >97% was produced in-house. Isosteviol may be produced by acid-catalysed extraction of Stevia rebaudiana L. Preferably at a pH below 5.5.
(§6) • Negative control: No isosteviol • Treatment 1 (IS10): 1% isosteviol mg/kg Bodyweight (BW) • Treatment 2 (IS13): 1.3% isosteviol mg/kg Bodyweight (BW)
(§7) The pigs were fed standard diets supplemented with Isosteviol as outlined above.
(§8) IsoSteviol Premix 0.71% was produced in Vilofoss Premix factory, and included at 0.29/0.37, 0.25/0.33% (by weight) in complete feed to reach 1/1.3 mg IsoSteviol/kg BW (bodyweight).
as §1, with “piglets” for “pigs”, “10” for “the five”, “pigsties per treatment” for “pigsties”, “libitum.” for “libitum (see Table 2).”, “control” for “CG”

pigs [5] = test: Overall uptake of feed judged by generated manure and stool analysis (Example 3); type: in vivo, pig (Danish Landrace)
Procedure: See example 1. Overall uptake of feed was determined by the amount of generated manure by the different groups.

pigs [6] = test: Turnover rate: days to grow pigs from approx. 30 kg to around 118 kg (Example 6); type: in vivo, pig (Danish Landrace)
Source text: See also previous examples. Turnover rates of the pigs was defined by the time (days) it takes to grow the pigs from approx. 30 kg to around 118 kg. Thus, turnover time is the time it takes to grow the pigs from approx. 30kg to their optimum slaughter weight. The faster the turnover rate is, the faster the pigs goes through the process and consequently this is the determination factor on how many pigs the farmer can deliver to the slaughterhouse within a year.

piglets [7] = test: Larger pig trial: feed conversion ratio (FCR) (Example 8); type: in vivo, pig (DanBred x Duroc); details: for Feed conversion ratio (FCR) versus negative control: 42 days trial
Source text: In this regard, the food/feed conversion ratio (FCR) is defined as the ratio between the amount of food eaten by an animal to the output produced by the animal (e.g. amount of meat produced by a pig, amount of milk produced by a cow etc.). Food that is efficiently taken up and converted by the body of the animal to said output obtains a FCR-value lower than a food having a low uptake in the animal. Thus, lower FCR-values are preferred for most applications. In some sectors, feed efficiency, which is the output divided by the input (i.e. the inverse of FCR), is used.
as §2, §3, §4, §5, §6, §7, §8
as §1, with “piglets” for “pigs”, “10” for “the five”, “pigsties per treatment” for “pigsties”, “libitum.” for “libitum (see Table 2).”, “control” for “CG”

broiler chickens = details: cited from earlier work
[8] = IG group (standard feed incl. standard dose of supplementary feed + isosteviol 1 mg/kg/day), 8 pigs
[9] = IPG group (standard feed + additional 10 w % supplementary feed + isosteviol 1 mg/kg/day), 9 pigs
[10] = IG group (isosteviol only, 1 mg/kg/day)
[11] = IPG group (additional 10 w % supplementary feed + isosteviol 1 mg/kg/day)
[12] = Treatment 1 (IS10), 1 mg IsoSteviol/kg BW in feed
[13] = Treatment 2 (IS13), 1.3 mg IsoSteviol/kg BW in feed

## C[C@@]12CC[C@@H]3[C@@](CC[C@H]4[C@@]3(C)CCC[C@@]4(C)C(=O)O)(CC1=O)C2 [isosteviol]
Pigs [1]
  stool firmness: more firm; also recorded: much firmer stool
Pigs [2]; FIG. 1, Isosteviol and protein group (IPG) vs CG at index 100
  growth exceeding that of control group (CG): 4.0%
Pigs [2]; FIG. 2, Isosteviol and protein group (IPG) vs CPG at index 100
  growth exceeding that of control+protein group (CPG): 5.8%
Pigs [2]; FIG. 3, Isosteviol group (IG) vs CG at index 100
  growth exceeding that of control group (CG): 0.8%
Pigs [2]; [8]
  Average weight (kg) week 8: 99.50 kg
  Average weight (kg) start: 35.00 kg
Pigs [2]; IG group, FIG. 3, in words
  weight gain compared to the Control (CG) group: clear increased weight gain
Pigs [2]; [9]
  Average weight (kg) week 8: 99.78 kg
  Average weight (kg) start: 33.11 kg
Pigs [2]; IPG group, FIG. 1, in words
  weight gain compared to the control group (CG): clear increased weight gain
Pigs [2]; IPG group, FIG. 2, in words
  weight gain compared to the CPG group: clear increased weight gain
Pigs [2]; [10]
  Net growth vs. CG group: 100.8
  Net growth vs. CPG group: 102.71
  Average weight (kg) Increase: 64.50 kg
Pigs [2]; [11]
  Net growth vs. CG group: 104.0
  Net growth vs. CPG group: 105.80
  Average weight (kg) Increase: 66.67 kg
Pigs [3]; IG group (isosteviol alone) vs control
  meat (muscle) percentage / muscle/fat ratio: very significant increase of the muscle weight; also recorded: increase
Pigs [3]; IPG group (isosteviol + supplementary feed) vs control
  meat (muscle) percentage / muscle/fat ratio: increased their muscle/fat ratio to a significant degree; also recorded: increase
Piglets [4]; Treatment 1 (+Isosteviol), FIG. 10, p<0.0023
  weight gain versus negative control: significant higher weight gain; also recorded: Observed relevant superiority, significant proven
Piglets [4]; [12]
  Body weight [kg] Mean SD 10: 11.568 kg
  Body weight [kg] Mean SD 21: 15.783 kg
  Body weight [kg] Mean SD 42: 32.660 kg
  Body weight [kg] Median SD 10: 11.550 kg
  Body weight [kg] Median SD 21: 15.900 kg
  Body weight [kg] Median SD 42: 33.200 kg
  Body weight [kg] Mean SD 0: 7.868 kg
  Body weight [kg] Median SD 0: 7.850 kg
Piglets [4]; Treatment 2 (+Isosteviol), FIG. 11, p<0.0158
  weight gain versus negative control: significant higher weight gain; also recorded: Observed relevant superiority, significant proven
Piglets [4]; [13]
  Body weight [kg] Mean SD 10: 11.574 kg
  Body weight [kg] Mean SD 21: 15.558 kg
  Body weight [kg] Mean SD 42: 32.293 kg
  Body weight [kg] Median SD 10: 11.500 kg
  Body weight [kg] Median SD 21: 15.600 kg
  Body weight [kg] Median SD 42: 32.000 kg
  Body weight [kg] Mean SD 0: 7.865 kg
  Body weight [kg] Median SD 0: 7.875 kg
Pigs [5]; IPG group compared to the control group
  appearance of pigs noted by the farmer (muscle to fat ratio): leaner and more firmly meaty
Pigs [5]; isosteviol added to feed (IPG) vs CPG group, FIG. 4
  overall uptake of the feed (amount of generated manure): higher overall uptake of the feed
Pigs [5]; preliminary stool analysis, considering the quantity of manure discharged, data not shown
  decrease of the amount of nutritional ingredients in stool: approx. 6%
Pigs [6]; IG group, data not shown
  increase of yearly turnover in production vs CG group: 0.1%
Pigs [6]; IPG group, FIG. 8
  increase of yearly turnover rate in production vs CG group: around 4.8%
Piglets [7]; Treatment 1 (+Isosteviol), FIG. 12
  Feed conversion ratio (FCR) versus negative control: significant decreased feed conversion ratio; also recorded: More than relevant superiority
Piglets [7]; [12]
  Feed Conversion Ratio (FCR) Mean SD 42: 1.399
  Feed Conversion Ratio (FCR) Median SD 42: 1.380
Piglets [7]; Treatment 2 (+Isosteviol), FIG. 13
  Feed conversion ratio (FCR) versus negative control: significant decreased feed conversion ratio; also recorded: More than relevant superiority
Piglets [7]; [13]
  Feed Conversion Ratio (FCR) Mean SD 42: 1.393
  Feed Conversion Ratio (FCR) Median SD 42: 1.360

## C=C1C[C@@]23CC[C@H]4[C@@](C)(CCC[C@@]4(C)C(=O)O[C@@H]4O[C@H](CO)[C@@H](O)[C@H](O)[C@H]4O)[C@@H]2CC[C@]1(O[C@@H]1O[C@H](CO)[C@@H](O)[C@H](O)[C@H]1O[C@@H]1O[C@H](CO)[C@@H](O)[C@H](O)[C@H]1O)C3 [stevioside]
Broiler chickens; fed orally to broiler chickens
  effect on the broilers: no positive effect
Broiler chickens; in a diet for broilers
  abdominal fat content of the chicken: significantly increased
